# How the values were obtained:
# chorioallantoic membrane = assay: HET-CAM irritation assay; settings: in vivo
# Text: HET-CAM assay was used in order to assess the toxicity of compounds 6 and 7 (Figure 16); the procedure is a low-cost, unique model in biomedical research that allows the testing of the irritation potency of chemical compounds while simultaneously avoiding in vivo experiments. […] The Luepke scale was used to establish the irritation score: 0–0.9 indicates non-irritant, 1–4.9 indicates weakly irritant, 5–8.9 indicates moderately irritant, and 9–21 means strongly irritant.
# Compounds 6 and 7 were also evaluated in terms of biocompatibility on mucosal tissues by using the in vivo Hen’s Egg Chorioallantoic Membrane Test (HET-CAM assay). The assay assesses a potential irritant effect on the vascular plexus of the chorioallantoic membrane. The HET-CAM method was carried out following ICCVAM recommendations published in November 2016 in Appendix G and adapted to our laboratory conditions. Thus, 300 µL of control or test solution, respectively, was applied on CAM and the alterations induced at the CAM level were monitored by means of stereomicroscopy (Discovery 8 Stereomicroscope, Zeiss), registering significant images (Axio CAM 105 color, Zeiss), before the application and after 5 min contact with the samples. All images were processed using Zeiss ZEN software, Gimp 2.8 and ImageJ software. Negative control was represented by distilled water and solvent control DMSO 0.5%, while the positive control by the sodium lauryl sulphate (SLS) 0.5% in distillate water. The test substances were tested in concentrations of 1 µM. The observation time of the produced reactions was 5 min (300 s) and the time, at which the occurrence of a particular reaction took place was recorded in seconds. Finally, the following reactions were monitored: hemorrhage—H (blood vessel bleeding), vascular lysis —L (disintegration of blood vessels), and coagulation —C (intra or extra- vascular protein denaturizing). A variety of analysis methods may be used to assess irritancy potential of test substances. One analysis method that has been used extensively used is an irritation score (IS) calculated according to the following formula: IS=5×301−SecH/300+[…]/300+9×301−SecC/300 where H = hemorrhage; L = vessel lysis; C = coagulation; Hemorrhage time (Sec H) = onset of hemorrhage reactions on CAM (in sec); Lysis time (Sec L) = onset of vessel lysis on CAM (in sec); Coagulation time (Sec C) = onset of coagulation formation on CAM (in sec). The formula comprises a factor indicating the impact of the observed effect on vascular damage, e.g., coagulation has the highest impact expressed by the multiplication factor 9. The IS values range on a scale between 0 and 21.
# [1] = tested on: NCI-60 cancer cell line panel; parameters: method as in PMID 33970717; settings: earlier study; read-out: GI50 range against NCI-60; cited from earlier work
# [2] = parameters: method as in PMID 11527742, doi:10.1007/s00044-018-2189-6, PMID 32956968; settings: literature data; cited from earlier work
Compound,GI50 [1],also measured
"CCCCCCCCCCCCOS(=O)(=O)[O-].[Na+] [SLS 0.5%, sodium laurylsulphate, reference compound]",,Type of Effect (chorioallantoic membrane): Strong irritant
3-pyridinylidene-messagenin,1 to 2 µM,
CC(=O)[C@@H]1CC[C@]2(C(=O)O)CC[C@]3(C)[C@H](CC[C@@H]4[C@@]5(C)CC[C@H](O)C(C)(C)[C@@H]5CC[C@]43C)[C@@H]12 [platanic acid],,GI50 [2]: > 50 µM
"2,30-bis-(3-pyridinylidene)-platanic acid",1 to 2 µM,

# Reference: article PMC8509773, “3-Pyridinylidene Derivatives of Chemically Modified Lupane and Ursane Triterpenes as Promising Anticancer Agents by Targeting Apoptosis” (International Journal of Molecular Sciences, 2021)
